In ChEMBL document CHEMBL5715954, “Silencing c-Myc translation as a therapeutic strategy through targeting PI3Kδ and CK1ε in hematological malignancies” (Blood, 2017) one finds Activity data, which are given here for 3 compounds.

Set-up in all cases: scale not given: the % may be the effect or the level left
The target of experiment [1] is T1, Serine/threonine-protein kinase Nek1 (Homo sapiens) (UniProt Q96PY6).
T1 sequence (whole entry): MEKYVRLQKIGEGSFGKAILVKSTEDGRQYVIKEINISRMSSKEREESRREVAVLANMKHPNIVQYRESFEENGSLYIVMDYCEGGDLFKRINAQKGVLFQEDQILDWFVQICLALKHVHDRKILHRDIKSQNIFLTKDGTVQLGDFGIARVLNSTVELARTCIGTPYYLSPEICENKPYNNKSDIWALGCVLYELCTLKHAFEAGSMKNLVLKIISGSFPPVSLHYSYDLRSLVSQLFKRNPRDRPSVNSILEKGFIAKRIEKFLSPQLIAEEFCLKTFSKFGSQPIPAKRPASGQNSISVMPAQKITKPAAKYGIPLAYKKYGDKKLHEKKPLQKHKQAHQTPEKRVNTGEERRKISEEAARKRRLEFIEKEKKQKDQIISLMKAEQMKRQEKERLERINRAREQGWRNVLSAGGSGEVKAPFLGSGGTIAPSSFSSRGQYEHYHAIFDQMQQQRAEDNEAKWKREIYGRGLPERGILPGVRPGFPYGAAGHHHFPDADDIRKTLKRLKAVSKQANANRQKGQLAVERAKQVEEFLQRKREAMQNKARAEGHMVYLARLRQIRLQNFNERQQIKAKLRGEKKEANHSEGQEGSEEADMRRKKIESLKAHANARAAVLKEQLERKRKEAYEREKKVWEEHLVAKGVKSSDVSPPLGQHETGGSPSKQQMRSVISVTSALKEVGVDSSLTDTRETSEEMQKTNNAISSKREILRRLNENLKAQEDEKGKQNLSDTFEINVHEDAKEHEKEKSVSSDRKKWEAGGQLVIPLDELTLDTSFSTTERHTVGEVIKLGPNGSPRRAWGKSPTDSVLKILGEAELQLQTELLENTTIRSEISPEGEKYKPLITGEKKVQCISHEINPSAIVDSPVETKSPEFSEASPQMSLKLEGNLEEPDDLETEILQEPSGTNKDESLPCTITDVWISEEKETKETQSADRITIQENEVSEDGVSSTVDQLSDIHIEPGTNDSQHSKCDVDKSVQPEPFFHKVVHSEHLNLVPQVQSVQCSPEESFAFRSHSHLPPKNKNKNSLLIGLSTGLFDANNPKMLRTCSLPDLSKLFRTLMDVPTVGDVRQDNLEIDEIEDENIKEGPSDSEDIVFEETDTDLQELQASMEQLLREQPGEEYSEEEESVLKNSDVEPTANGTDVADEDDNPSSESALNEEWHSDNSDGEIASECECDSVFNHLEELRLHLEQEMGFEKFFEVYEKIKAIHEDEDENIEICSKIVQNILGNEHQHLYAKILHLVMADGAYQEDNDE
The experiment is described as follows: Inhibition of human NEK1 assessed as enzyme activity at 1 uM using myelin basic protein as substrate preincubated for 20 mins followed by [gamma-33P]-ATP addition and measured after 120 mins by radiometric Hot-SpotSM Kinase assay relative to control.

Experiment [2] addresses Serine/threonine-protein kinase N2 (Homo sapiens) (UniProt Q16513). The experiment is described as follows: Inhibition of human PKN2 assessed as enzyme activity at 1 uM using KKLNRTLSVA as substrate preincubated for 20 mins followed by [gamma-33P]-ATP addition and measured after 120 mins by radiometric Hot-SpotSM Kinase assay relative to control.
Experiment [3] has as its target Serine/threonine-protein kinase PAK 5 (Homo sapiens) (UniProt Q9P286). The experiment is described as follows: Inhibition of human PAK5 assessed as enzyme activity at 1 uM using RRRLSFAEPG as substrate preincubated for 20 mins followed by [gamma-33P]-ATP addition and measured after 120 mins by radiometric Hot-SpotSM Kinase assay relative to control.
Experiment [4] has as its target Calcium/calmodulin-dependent protein kinase kinase 2 (Homo sapiens) (UniProt Q96RR4). The experiment can be described thus: Inhibition of human CAMKK2 assessed as enzyme activity at 1 uM using myelin basic protein as substrate preincubated for 20 mins followed by [gamma-33P]-ATP addition and measured after 120 mins by radiometric Hot-SpotSM Kinase assay relative to control.

The target of experiment [5] is T2, Phosphorylase b kinase gamma catalytic chain, liver/testis isoform (Homo sapiens) (UniProt P15735).
T2 sequence (whole entry): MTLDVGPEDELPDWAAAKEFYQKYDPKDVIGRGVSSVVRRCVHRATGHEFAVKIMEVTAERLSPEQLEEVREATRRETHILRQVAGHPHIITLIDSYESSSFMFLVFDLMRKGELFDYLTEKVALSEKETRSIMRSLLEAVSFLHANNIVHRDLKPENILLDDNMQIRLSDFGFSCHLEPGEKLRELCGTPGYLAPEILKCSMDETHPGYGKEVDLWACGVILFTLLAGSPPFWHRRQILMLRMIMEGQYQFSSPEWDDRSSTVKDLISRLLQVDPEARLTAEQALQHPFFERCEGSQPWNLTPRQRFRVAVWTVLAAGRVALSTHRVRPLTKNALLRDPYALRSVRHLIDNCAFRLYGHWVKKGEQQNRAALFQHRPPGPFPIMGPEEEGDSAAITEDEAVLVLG
The experiment can be described thus: Inhibition of human PHKg2 assessed as enzyme activity at 1 uM using KKLNRTLSFAEPG as substrate preincubated for 20 mins followed by [gamma-33P]-ATP addition and measured after 120 mins by radiometric Hot-SpotSM Kinase assay relative to control.

The target in experiment [6] is Serine/threonine-protein kinase PAK 3 (Homo sapiens) (UniProt O75914). The experiment is described as follows: Inhibition of human PAK3 assessed as enzyme activity at 1 uM using RRRLSFAEPG as substrate preincubated for 20 mins followed by [gamma-33P]-ATP addition and measured after 120 mins by radiometric Hot-SpotSM Kinase assay relative to control.
Experiment [7] addresses Serine/threonine-protein kinase PLK2 (Homo sapiens) (UniProt Q9NYY3). The experiment is described as follows: Inhibition of human PLK2 assessed as enzyme activity at 1 uM using casein as substrate preincubated for 20 mins followed by [gamma-33P]-ATP addition and measured after 120 mins by radiometric Hot-SpotSM Kinase assay relative to control.
In experiment [8] the target is CDK7/Cyclin H/MNAT1 (Homo sapiens) (UniProt P51946+P50613+P51948). The experiment can be described thus: Inhibition of human CDK7/Cyclin H/MNAT1 assessed as enzyme activity at 1 uM using myelin basic protein as substrate preincubated for 20 mins followed by [gamma-33P]-ATP addition and measured after 120 mins by radiometric Hot-SpotSM Kinase assay relative to control. It is filed as protein-complex assay.

The target in experiment [9] is Vascular endothelial growth factor receptor 1 (Homo sapiens) (UniProt P17948). The experiment is described as follows: Inhibition of human FLT1 assessed as enzyme activity at 1 uM using poly[Glu:Tyr] (4:1) as substrate preincubated for 20 mins followed by [gamma-33P]-ATP addition and measured after 120 mins by radiometric Hot-SpotSM Kinase assay relative to control.

Experiment [10] has as its target Serine/threonine-protein kinase Chk2 (Homo sapiens) (UniProt O96017). The experiment can be described thus: Inhibition of human CHK2 assessed as enzyme activity at 1 uM using KKKVSRSGLYRSPSMPENLNRPR as substrate preincubated for 20 mins followed by [gamma-33P]-ATP addition and measured after 120 mins by radiometric Hot-SpotSM Kinase assay relative to control.

Sequence of Serine/threonine-protein kinase PAK 3 (Homo sapiens) (O75914 whole entry, looked up): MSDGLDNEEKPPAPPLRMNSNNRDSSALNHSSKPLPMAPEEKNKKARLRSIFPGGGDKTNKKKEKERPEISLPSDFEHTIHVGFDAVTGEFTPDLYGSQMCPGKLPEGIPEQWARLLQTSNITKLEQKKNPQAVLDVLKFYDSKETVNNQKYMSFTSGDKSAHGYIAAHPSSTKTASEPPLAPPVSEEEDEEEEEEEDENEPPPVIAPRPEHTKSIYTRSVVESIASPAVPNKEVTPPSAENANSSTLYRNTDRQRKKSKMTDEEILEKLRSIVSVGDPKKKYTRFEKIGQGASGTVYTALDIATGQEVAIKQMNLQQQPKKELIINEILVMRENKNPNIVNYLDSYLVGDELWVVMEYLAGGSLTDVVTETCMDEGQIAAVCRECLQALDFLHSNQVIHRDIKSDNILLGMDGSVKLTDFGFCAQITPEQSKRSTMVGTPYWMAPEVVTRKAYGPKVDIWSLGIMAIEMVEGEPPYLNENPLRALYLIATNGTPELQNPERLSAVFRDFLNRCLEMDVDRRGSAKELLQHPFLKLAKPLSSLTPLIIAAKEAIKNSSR
Sequence of Calcium/calmodulin-dependent protein kinase kinase 2 (Homo sapiens) (Q96RR4 2-588 limits assumed): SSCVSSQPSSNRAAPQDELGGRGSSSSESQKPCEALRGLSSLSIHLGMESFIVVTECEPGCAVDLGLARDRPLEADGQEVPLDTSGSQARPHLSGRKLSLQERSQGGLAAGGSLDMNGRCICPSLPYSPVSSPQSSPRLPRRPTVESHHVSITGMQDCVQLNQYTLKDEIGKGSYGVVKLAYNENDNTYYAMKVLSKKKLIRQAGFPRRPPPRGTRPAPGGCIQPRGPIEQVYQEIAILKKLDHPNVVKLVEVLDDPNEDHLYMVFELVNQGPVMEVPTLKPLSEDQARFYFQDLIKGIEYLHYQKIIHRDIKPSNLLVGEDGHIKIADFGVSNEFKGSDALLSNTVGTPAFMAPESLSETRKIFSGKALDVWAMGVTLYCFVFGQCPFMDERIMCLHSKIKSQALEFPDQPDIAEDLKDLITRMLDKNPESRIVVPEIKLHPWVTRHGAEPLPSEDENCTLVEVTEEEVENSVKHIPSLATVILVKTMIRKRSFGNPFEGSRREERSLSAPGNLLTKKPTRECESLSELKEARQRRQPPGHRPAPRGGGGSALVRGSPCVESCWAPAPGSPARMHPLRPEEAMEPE
Sequence of Serine/threonine-protein kinase PAK 5 (Homo sapiens) (Q9P286 whole entry, looked up): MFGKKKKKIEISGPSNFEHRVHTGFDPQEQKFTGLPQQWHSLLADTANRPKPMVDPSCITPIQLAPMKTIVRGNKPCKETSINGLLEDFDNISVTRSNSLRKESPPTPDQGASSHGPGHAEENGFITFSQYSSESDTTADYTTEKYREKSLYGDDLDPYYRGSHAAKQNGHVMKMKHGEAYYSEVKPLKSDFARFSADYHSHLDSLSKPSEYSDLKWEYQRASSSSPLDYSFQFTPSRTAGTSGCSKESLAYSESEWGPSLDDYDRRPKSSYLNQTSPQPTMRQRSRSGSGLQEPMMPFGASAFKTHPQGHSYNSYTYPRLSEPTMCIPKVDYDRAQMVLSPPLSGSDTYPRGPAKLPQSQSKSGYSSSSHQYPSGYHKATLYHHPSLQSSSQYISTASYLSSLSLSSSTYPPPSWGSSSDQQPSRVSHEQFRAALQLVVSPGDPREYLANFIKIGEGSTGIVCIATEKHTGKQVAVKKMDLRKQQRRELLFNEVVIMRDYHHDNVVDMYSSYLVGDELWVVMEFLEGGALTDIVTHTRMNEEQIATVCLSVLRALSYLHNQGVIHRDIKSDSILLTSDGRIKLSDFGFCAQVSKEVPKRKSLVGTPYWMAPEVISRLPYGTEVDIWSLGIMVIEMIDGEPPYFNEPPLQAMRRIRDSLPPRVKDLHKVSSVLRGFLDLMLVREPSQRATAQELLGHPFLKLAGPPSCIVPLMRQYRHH
Sequence of Serine/threonine-protein kinase N2 (Homo sapiens) (Q16513 whole entry, looked up): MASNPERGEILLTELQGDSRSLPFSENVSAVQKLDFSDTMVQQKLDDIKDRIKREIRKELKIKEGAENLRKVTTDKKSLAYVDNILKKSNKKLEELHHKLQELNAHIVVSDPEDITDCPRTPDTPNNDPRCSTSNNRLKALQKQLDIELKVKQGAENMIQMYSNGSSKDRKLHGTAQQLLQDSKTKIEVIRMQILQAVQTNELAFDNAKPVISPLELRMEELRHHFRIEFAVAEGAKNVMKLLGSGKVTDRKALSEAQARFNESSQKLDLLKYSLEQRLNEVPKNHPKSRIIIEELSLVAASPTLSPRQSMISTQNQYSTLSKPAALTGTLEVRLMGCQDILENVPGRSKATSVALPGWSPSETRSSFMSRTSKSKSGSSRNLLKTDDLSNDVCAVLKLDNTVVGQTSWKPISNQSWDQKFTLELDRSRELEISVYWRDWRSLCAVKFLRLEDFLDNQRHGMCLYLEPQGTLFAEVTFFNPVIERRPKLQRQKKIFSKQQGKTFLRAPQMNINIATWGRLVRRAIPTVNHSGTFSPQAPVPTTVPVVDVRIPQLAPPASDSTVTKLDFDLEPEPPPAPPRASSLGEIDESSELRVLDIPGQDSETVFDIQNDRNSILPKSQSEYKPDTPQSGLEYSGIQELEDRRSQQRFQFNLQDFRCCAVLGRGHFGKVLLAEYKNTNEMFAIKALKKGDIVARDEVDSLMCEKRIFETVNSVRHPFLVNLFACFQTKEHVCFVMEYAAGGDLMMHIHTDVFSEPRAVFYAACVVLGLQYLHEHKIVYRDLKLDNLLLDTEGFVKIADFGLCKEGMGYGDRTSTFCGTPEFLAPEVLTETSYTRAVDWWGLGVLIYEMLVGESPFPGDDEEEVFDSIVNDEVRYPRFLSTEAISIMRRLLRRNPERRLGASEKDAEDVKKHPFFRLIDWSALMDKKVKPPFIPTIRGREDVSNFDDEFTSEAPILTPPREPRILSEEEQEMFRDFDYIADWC
Sequence of Serine/threonine-protein kinase Chk2 (Homo sapiens) (O96017 whole entry): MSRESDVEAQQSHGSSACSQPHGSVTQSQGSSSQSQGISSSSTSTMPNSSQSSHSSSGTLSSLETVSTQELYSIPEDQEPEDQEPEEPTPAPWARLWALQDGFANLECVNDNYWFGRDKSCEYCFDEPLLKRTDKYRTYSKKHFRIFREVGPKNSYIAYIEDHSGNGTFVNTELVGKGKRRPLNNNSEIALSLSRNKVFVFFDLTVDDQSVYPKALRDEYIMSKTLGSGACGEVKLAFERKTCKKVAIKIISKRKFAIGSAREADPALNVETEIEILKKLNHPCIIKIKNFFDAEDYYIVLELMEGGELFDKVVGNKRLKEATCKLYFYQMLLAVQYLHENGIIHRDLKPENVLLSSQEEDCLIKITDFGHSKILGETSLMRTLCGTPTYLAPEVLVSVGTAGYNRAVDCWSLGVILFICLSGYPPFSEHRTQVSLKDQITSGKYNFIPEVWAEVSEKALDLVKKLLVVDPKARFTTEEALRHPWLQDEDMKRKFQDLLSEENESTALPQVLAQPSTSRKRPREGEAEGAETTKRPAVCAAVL
Sequence of Serine/threonine-protein kinase PLK2 (Homo sapiens) (Q9NYY3 whole entry, looked up): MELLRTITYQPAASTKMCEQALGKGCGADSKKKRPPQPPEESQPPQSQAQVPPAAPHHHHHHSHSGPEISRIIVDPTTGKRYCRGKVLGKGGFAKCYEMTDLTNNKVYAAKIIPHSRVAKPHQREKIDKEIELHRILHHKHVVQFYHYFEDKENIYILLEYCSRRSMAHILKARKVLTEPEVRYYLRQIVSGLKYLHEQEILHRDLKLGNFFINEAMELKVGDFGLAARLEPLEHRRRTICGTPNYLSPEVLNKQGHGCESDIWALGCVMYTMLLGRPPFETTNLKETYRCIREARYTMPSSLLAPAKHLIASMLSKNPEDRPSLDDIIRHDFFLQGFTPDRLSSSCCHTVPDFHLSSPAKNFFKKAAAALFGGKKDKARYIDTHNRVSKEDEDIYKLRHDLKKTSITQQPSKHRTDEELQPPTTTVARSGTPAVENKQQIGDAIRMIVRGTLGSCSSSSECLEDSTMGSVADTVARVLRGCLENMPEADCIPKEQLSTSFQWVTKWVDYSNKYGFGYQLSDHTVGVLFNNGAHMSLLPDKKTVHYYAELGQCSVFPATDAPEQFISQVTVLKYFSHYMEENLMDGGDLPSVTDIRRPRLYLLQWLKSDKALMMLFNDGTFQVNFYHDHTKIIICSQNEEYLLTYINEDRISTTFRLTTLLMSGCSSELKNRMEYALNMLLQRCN

For `C[C@H](Nc1ncnc2nc[nH]c12)c1cc2cccc(Cl)c2c(=O)n1-c1ccccc1`, the Activity was 87% in experiment [1]; 84.5% in experiment [2]; 101% in experiment [3]; 96.6% in experiment [4]; 102% in experiment [5]; 95.5% in [6]. Besides, the Activity was found to be 98.6% in experiment [7], 95.2% in experiment [8], 94.3% in experiment [9] and 91.3% in experiment [10].

For the compound `CC[C@H](Nc1ncnc2[nH]cnc12)c1nc2cccc(F)c2c(=O)n1-c1ccccc1`, the Activity in experiment [1] turned out to be 93.5%; in experiment [2], 84.7%; in experiment [3], 101%; in [4], 106%; in experiment [5] it was 89.1%; in [6] it was 94.5%. The Activity in experiment [7] amounted to 102%; in experiment [8], 98.1%; in experiment [9] it was 94.4%; in experiment [10], 93.7%.

Take `CC(C)Oc1ccc(-c2nn([C@@H](C)c3oc4ccc(F)cc4c(=O)c3-c3cccc(F)c3)c3ncnc(N)c23)cc1F` [UMBRALISIB]: the Activity in experiment [1] amounted to 105%; in experiment [2], 84.4%; in experiment [3] it was 96.4%; in experiment [4], 98.5%; in [5] it was 95.4%; in experiment [6] it was 96.5%. The Activity is 99.8% in [7], 101% in experiment [8], 92.3% in experiment [9] and 93.2% in experiment [10].
